{
  "source": "patent US20050246797A1",
  "about": "“Gene participating in the synthesis of brassinosteroid” (priority 2002, published 2005)",
  "key": {"[1]": {"assay": "Concentrations of brassinosteroids in Arabidopsis strains by HPLC and GC-MS", "protocol": "The concentrations of brassinosteroids were determined in wild strains (Ws-2), the strain of reference example 1 (rot3-1 and rot3-5, suppressed function of ROT3) and the strain of reference example 3 (rot3/CYP90D1, suppressed function of ROT3 and CYP90D1) of Arabidoposis. The concentration was determined by harvesting the ground part of the plants at the time of rosette formation by reaping, by freezing and drying, and by detecting using HPLC and GC-MS."}, "[2]": {"system": "strains of suppressed function of both ROT3 and CYP90D1", "assay": "Treatment of plants/leaves of the ROT3- and CYP90D1-suppressed strain with brassinosteroid intermediates or brassinolide (leaf morphology, FIG. 3)", "type": "in vivo, Arabidopsis", "conditions": "aqueous solution 0.1 μM, submersion with gentle shaking", "protocol": "The strain with suppressed function of both ROT3 and CYP90D1 prepared in reference example 2 was cultured from seeds in sterilized conditions. The seeds of the above-described strain were seeded on the MS medium (solidified by 0.2% Gelrite) supplemented with 2% (w/v) sucrose and were conventionally cultured at 23° C. under continuous illumination after seeding under sterilized conditions.\nThe above-described plants (strains of suppressed function of both ROT3 and CYP90D1) were cultured in the above-described aqueous solution at the level of submersion under the solution with gently shaking. In the case of the treatment of leaves with the above-described intermediates or brassionolide, leafstalks were cut out by a surgical knife after taking out the plants under sterilized conditions and were treated in the same way. […] Namely, ROT3 and CYP90D1 are cooperatively involved in the synthesis of brassinolide, the final product of the biosynthetic pathway of brassinosteriods."}, "[3]": {"conditions": "rot3/CYP90D1 (suppressed function of ROT3 and CYP90D1), ground part of plants at rosette formation"}},
  "note": "Where two headings read alike, the source gives them in different places.",
  "data": [
    {"smiles": "CC(C)[C@H](C)[C@@H](O)[C@H](O)[C@@H](C)[C@H]1CC[C@H]2[C@@H]3CC[C@H]4C[C@H](O)[C@H](O)C[C@]4(C)[C@H]3CC[C@]12C", "note": "[6-Deoxocastasterone]", "values": [
      {"measurement": "concentration of brassinosteroid, rot3/CYP90D1", "setting": "[1]", "result": 0.034, "unit": "ng/g"}
    ]},
    {"smiles": "CC(C)[C@H](C)[C@@H](O)[C@H](O)[C@@H](C)C1CCC2C3OC(=O)[C@H]4C[C@H](O)[C@H](O)C[C@]4(C)C3CC[C@@]21C", "note": "(stereo partly shown) [Brassinolide]", "values": [
      {"measurement": "concentration of brassinosteroid, rot3/CYP90D1", "setting": "[1]; [3]", "result": "— (— in the table shows that the value is less than the limit of detection (0.001 ng/g))"},
      {"measurement": "amount in the strain with suppressed function of both ROT3 and CYP90D1", "setting": "[1]; rot3/CYP90D1, in words", "result": "extremely decreased"},
      {"measurement": "effect on leaf size/morphology of plants without the function of ROT3 and CYP90D1", "setting": "[2]", "result": "induced large size of leaves"}
    ]},
    {"smiles": "CC(C)[C@H](C)[C@@H](O)[C@H](O)[C@@H](C)[C@H]1CC[C@H]2[C@@H]3CC(=O)[C@H]4C[C@H](O)[C@H](O)C[C@]4(C)[C@H]3CC[C@]12C", "note": "[Castasterone]", "values": [
      {"measurement": "concentration of brassinosteroid, rot3/CYP90D1", "setting": "[1]; [3]", "result": 0.020, "unit": "ng/g"}
    ]},
    {"smiles": "CC(C)[C@H](C)[C@@H](O)[C@H](O)[C@@H](C)[C@H]1CC[C@H]2[C@@H]3CC[C@H]4C[C@@H](O)CC[C@]4(C)[C@H]3CC[C@]12C", "note": "[6-Deoxoteasterone]", "values": [
      {"measurement": "concentration of brassinosteroid, rot3/CYP90D1", "setting": "[1]; [3]", "result": 0.26, "unit": "ng/g"}
    ]},
    {"smiles": "CC(C)[C@H](C)[C@@H](O)[C@H](O)[C@@H](C)[C@H]1CC[C@H]2[C@@H]3CC[C@H]4C[C@H](O)CC[C@]4(C)[C@H]3CC[C@]12C", "note": "[3-Deoxotyphasterol]", "values": [
      {"measurement": "concentration of brassinosteroid, rot3/CYP90D1", "setting": "[1]; [3]", "result": 0.38, "unit": "ng/g"}
    ]}
  ]
}
